≈ marks a conversion by molar mass, not a printed value.
What was measured:
Assay type in all cases: functional
Enterococcus faecalis [1] = experiment: Antimicrobial activity against Enterococcus faecalis JH2-2 harboring nucleotides at position 2576 in rrlA 2576T, rrlB 2576G, rrlC 2576G/T and rrlD 2576T after 6, 8 passages under Linezolid selective pressure by agar dilution method
Enterococcus faecalis [2] = experiment: Antimicrobial activity against Enterococcus faecalis JH2-2 harboring nucleotides at position 2576 in rrlA 2576T, rrlB 2576G, rrlC 2576T and rrlD 2576T after 9, 10, 11 passages under Linezolid selective pressure by agar dilution method
Enterococcus faecalis [3] = experiment: Antimicrobial activity against recombination-deficient Enterococcus faecalis JH2-2 recA harboring nucleotides at position 2576 in rrlA 2576T, rrlB 2576G, rrlC 2576T and rrlD 2576T after 10, 11 passages under Linezolid selective pressure by agar dilution method

In the case of `CC(=O)NC[C@H]1CN(c2ccc(N3CCOCC3)c(F)c2)C(=O)O1` [LINEZOLID], the MIC (Enterococcus faecalis [1]) is reported as 32 µg/mL (≈ 94.9 µM), the MIC (Enterococcus faecalis [2]) is reported as 64 µg/mL (≈ 190 µM) and the MIC (Enterococcus faecalis [3]) is reported as 32 µg/mL.
